Data published in the NIST ThermoML archive (doi:10.1021/acs.jced.9b00703).
± gives the expanded uncertainty stated by the source.

Assays:
[1] = Molar enthalpy of transition or fusion; details: Crystal; DSC
[2] = Crystal; DSC

Molar enthalpy of transition or fusion [1]: 10.7 ± 0.382 kcal/mol
Triple point temperature [2]: 475.25 ± 0.87 K
SMILES: OC[C@H]1O[C@@H](Oc2ccc(O)cc2)[C@H](O)[C@@H](O)[C@@H]1O [β-arbutin]
